According to ChEMBL document CHEMBL4190261, “Triazole derivatives and their anti-tubercular activity” (Eur J Med Chem, 2017):
Values after ≈ are worked out from the molar mass of the structure shown.

Experiments:
[1] = test system: Mycobacterium tuberculosis; assay: Potency index, ratio of ethambutol MIC to compound MIC for Mycobacterium tuberculosis H37Rv; format: functional
[2] = test system: Mycobacterium tuberculosis; assay: Antimycobacterial activity against Mycobacterium tuberculosis H37Rv; format: functional
Pantothenate synthetase = target: T1, Pantothenate synthetase (Mycobacterium tuberculosis, UniProt P9WIL5); assay: Inhibition of Mycobacterium tuberculosis pantothenate synthetase
T1 sequence (P9WIL5 whole entry): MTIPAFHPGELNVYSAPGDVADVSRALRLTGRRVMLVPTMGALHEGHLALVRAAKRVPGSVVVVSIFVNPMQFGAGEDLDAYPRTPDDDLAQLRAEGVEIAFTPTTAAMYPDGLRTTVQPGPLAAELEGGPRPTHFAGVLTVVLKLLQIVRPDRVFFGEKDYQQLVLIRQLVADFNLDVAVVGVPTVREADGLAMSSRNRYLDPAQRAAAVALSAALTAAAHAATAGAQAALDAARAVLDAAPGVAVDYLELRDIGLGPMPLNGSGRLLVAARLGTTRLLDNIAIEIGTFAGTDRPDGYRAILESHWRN

[3] = test system: Mycobacterium tuberculosis; assay: Antimycobacterial activity against Mycobacterium tuberculosis H37Rv ATCC 27294 by agar dilution method; format: functional
[4] = test system: Mycobacterium tuberculosis; assay: Potency index, ratio of linezolid MIC to compound MIC for Mycobacterium tuberculosis H37Rv; format: functional
[5] = test system: Mycobacterium tuberculosis; assay: Potency index, ratio of ethambutol MIC to compound MIC for Mycobacterium tuberculosis H37Rv ATCC 27294; format: functional
[6] = test system: Mycobacterium tuberculosis; assay: Antimycobacterial activity against Mycobacterium tuberculosis H37Rv ATCC 27294 after 5 days by MABA; format: functional; conditions: H37Rv ATCC 27294, 120 h
[7] = Selectivity index, ratio of cytotoxic concentration for HEK293 cells to MIC for Mycobacterium tuberculosis H37Rv ATCC 27294; format: toxicity; conditions: human, read-out: Selectivity Index
[8] = target: T2, Phosphotyrosine protein phosphatase (Mycobacterium tuberculosis, UniProt A0A045ISB3); assay: Inhibition of Mycobacterium tuberculosis PTPB
T2 sequence (A0A045ISB3 whole entry): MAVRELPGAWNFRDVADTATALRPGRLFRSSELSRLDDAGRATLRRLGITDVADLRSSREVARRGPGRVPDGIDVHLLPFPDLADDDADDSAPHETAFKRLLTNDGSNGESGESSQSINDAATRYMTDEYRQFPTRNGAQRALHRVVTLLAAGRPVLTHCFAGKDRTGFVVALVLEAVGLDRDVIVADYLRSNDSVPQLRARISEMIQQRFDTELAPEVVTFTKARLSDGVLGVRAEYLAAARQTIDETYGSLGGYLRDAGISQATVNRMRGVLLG

[9] = test system: Mycobacterium tuberculosis; assay: Antimycobacterial activity against Mycobacterium tuberculosis MC2 6230; format: functional
[10] = test system: Mycobacterium tuberculosis; assay: Antimycobacterial activity against Mycobacterium tuberculosis MC2 7000; format: functional
[11] = Mycobacterium tuberculosis, H37Rv

Structure (SMILES): CCCCCc1ccc(-c2cn(CC(O)COc3ccc4c(c3)OC3(CCCCC3)CC4=O)nn2)cc1 (stereo not given)
- Ratio [1]: 2
- MIC [2, 11]: 0.78 µg/mL (≈ 1.55 µM)

Structure (SMILES): COc1ccc(-c2nnc(-c3cccnc3)n2Nc2nc3c(Cl)cccc3s2)cc1
- MIC99 [2, 11]: 25 µg/mL (≈ 57.5 µM)

Structure (SMILES): COc1ccc(-n2cc(Cn3nc(-c4ccccc4)c4c3CCN(C(=O)Nc3ccccc3)C4)nn2)cc1
- IC50 (Pantothenate synthetase): 1010 nM
- MIC [3]: 24.7 µM (≈ 12.5 µg/mL)

Structure (SMILES): O=C1CC2CN(c3ccc(N4C[C@H](Cn5ccnn5)OC4=O)cc3F)CC2C1 (stereo not given in full)
- Ratio [4]: 2
- MIC [2, 11]: 0.5 µg/mL (≈ 1.3 µM)

Structure (SMILES): O=C(N/N=C1/C(=O)N(Cc2ccc(Cl)cc2)c2ccccc21)c1ccc(-n2cc(-c3ccccc3)nn2)cc1O
- Ratio [5]: 8
- MIC [6]: 0.39 µg/mL (≈ 0.71 µM)
- selectivity ratio [7]: > 128

Structure (SMILES): O=C(CCCCCCn1cc(COc2ccc(-c3cc(C(=O)O)no3)c(C3CCCCC3)c2)nn1)Nc1ccc2cc3ccccc3cc2c1
- IC50 [8]: 170 nM

Structure (SMILES): c1cncc(-c2nn3c(COc4cnccn4)nnc3s2)c1
- MIC [2, 11]: 0.4 µg/mL (≈ 1.28 µM)

Structure (SMILES): Clc1cccc(Cl)c1-c1nnc2sc(-c3cccnc3)nn12
- MIC [2, 11]: 25 µg/mL (≈ 71.8 µM)

Structure (SMILES): CC1=C(C(=O)O)N2C(=O)[C@@H](NC(=O)[C@H](N)c3ccccc3)[C@H]2SC1 [CEPHALEXIN ANHYDROUS]
- MIC [9]: 0.12 to 144 µM
- MIC [10]: 0.12 to 144 µM

Structure (SMILES): CC[C@@H](CO)NCCN[C@@H](CC)CO [ETHAMBUTOL]
- MIC [6]: 3.13 µg/mL (≈ 15.3 µM)
- MIC [2, 11]: 1.56 µg/mL (≈ 7.64 µM)

Structure (SMILES): CCc1cc(C(N)=S)ccn1 [ETHIONAMIDE]
- MIC [9]: 0.12 to 144 µM
- MIC [10]: 0.12 to 144 µM

Structure (SMILES): NNC(=O)c1ccncc1 [ISONIAZID]
- MIC [6]: 0.06 µg/mL (≈ 0.438 µM)
- MIC [9]: 0.12 to 144 µM
- MIC [10]: 0.12 to 144 µM
- MIC [2, 11]: 0.075 µg/mL (≈ 0.547 µM)

Structure (SMILES): CC(=O)NC[C@H]1CN(c2ccc(N3CCOCC3)c(F)c2)C(=O)O1 [LINEZOLID]
- MIC [2, 11]: 1 µg/mL (≈ 2.96 µM)

Structure (SMILES): NC(=O)c1cnccn1 [PYRAZINAMIDE]
- MIC [2, 11]: 100 µg/mL (≈ 812 µM)

Structure (SMILES): CO[C@H]1/C=C/O[C@@]2(C)Oc3c(C)c(O)c4c(O)c(c(/C=N/N5CCN(C)CC5)c(O)c4c3C2=O)NC(=O)/C(C)=C\C=C\[C@H](C)[C@H](O)[C@@H](C)[C@@H](O)[C@@H](C)[C@H](OC(C)=O)[C@@H]1C [RIFAMPIN]
- MIC [6]: 0.39 µg/mL (≈ 0.474 µM)
- MIC [9]: 0.12 to 144 µM
- MIC [10]: 0.12 to 144 µM
- MIC98 [2]: 40 µg/mL (≈ 48.6 µM)
- MIC [2, 11]: 0.043 to 0.5 µg/mL (≈ 0.0523 to 0.608 µM)
